The test system of assay [1] is bone marrow cells. Put plainly: In vivo bone marrow CFU formation and bone marrow cellularity, dose dependent effect. The settings on record: for Mean of CFU Formation / Mean of Cellularity: 4 days. The arrangement: species or system C57BL/6 mice. From the text:
(§1) Assay for Bone Marrow Cell Proliferation Induced by Swansonine Analogues. Pathogen-free C57BL/6 mice at 8-14 weeks of age were quarantined for one week prior to their use in the experiments described below. Mice were inoculated intraperitoneally twice daily with a designated dose of swainsonine or an analogue of swainsonine for a period of four days. Eighteen hours following the last injection, the mice were sacrificed, bone marrow cells were obtained using standard technology (S. C. White et al., J. Natl. Cancer Inst. 83 1125, 1991). Cellularity of the bone marrow cells so obtained was determined by directly counting the cells after they were flushed from the femurs and tibia of the mice. The cells were processed according to the procedure described in the GIBCO-BRL Mouse Bone Stem Cell Proliferation Kit, and the number of colony forming units (CFU) was assessed using the procedures also described in the kit. For kinetic experiments, mice were administered 10 ug of the analogue (this was the optimum dose in all cases) twice daily for the designated number of days. The experiments were designed so that all regimens terminated on the same day. Eighteen hours after the last injection, the mice were sacrificed and bone marrow cells were obtained and processed as described above.

In assay [2] the target is T1, Jack Bean alpha-mannosidase (Canavalia ensiformis, UniProt C0HJB3).
T1 sequence (C0HJB3 1-981): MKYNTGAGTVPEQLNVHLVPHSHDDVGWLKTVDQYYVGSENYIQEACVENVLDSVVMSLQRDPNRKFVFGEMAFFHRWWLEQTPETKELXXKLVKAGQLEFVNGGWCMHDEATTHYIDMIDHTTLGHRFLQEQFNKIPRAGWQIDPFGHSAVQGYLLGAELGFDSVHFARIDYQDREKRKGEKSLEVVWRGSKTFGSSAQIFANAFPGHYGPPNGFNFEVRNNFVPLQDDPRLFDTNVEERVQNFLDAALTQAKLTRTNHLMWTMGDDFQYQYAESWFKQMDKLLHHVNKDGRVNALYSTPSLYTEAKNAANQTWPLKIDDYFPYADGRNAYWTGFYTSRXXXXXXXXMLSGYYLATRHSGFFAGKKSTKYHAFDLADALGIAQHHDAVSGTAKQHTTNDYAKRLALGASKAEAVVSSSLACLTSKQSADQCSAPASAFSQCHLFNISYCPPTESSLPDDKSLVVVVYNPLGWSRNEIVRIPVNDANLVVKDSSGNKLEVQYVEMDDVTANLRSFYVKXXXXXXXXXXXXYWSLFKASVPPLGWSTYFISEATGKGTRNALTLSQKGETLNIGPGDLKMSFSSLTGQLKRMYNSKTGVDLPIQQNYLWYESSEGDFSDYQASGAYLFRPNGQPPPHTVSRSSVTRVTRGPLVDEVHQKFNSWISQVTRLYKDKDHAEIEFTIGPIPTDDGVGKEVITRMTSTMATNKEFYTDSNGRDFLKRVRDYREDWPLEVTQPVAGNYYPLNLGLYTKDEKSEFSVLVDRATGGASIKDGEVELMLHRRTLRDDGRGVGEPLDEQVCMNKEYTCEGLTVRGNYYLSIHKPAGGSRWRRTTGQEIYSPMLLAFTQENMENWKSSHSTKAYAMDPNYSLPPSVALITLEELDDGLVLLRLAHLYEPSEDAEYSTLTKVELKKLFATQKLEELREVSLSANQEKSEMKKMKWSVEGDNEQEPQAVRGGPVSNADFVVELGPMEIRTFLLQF
Put plainly: Jack Bean alpha-mannosidase assay. The format is biochemical. The settings on record: pH 6.0, 37° C., 30 minutes, p-nitrophenyl-alpha-D-mannopyranoside substrate; read-out: D50 Values (Inhibition), J.B. mannosidase (converted). As for the experimental part: Jack Bean alpha-Mannosidase Assay. […] A volume (37.5 ul) of 0.05M sodium acetate (pH 6.0) was added to each well, followed by 37.5 ul of 0.01M p-nitrophenyl-alpha-D-mannopyanoside, and then 10 ul of a 1:400 dilution of Jack Bean alpha-mannosidase. After thoroughly shaking to mix, the mixture was incubated at 37° C. for 30 minutes. The reaction was stopped by the addition of 150 ul of 0.5M sodium carbonate (pH 10.0). The absorbance at 405 nm of the solution in the wells was determined in an ELISA plate reader.

Assay [3] relates to N-linked oligosaccharide processing. Put plainly: L-PHA lectin sensitivity assay for inhibition of N-linked oligosaccharide processing. It is filed as cell-based. The note with it: L-PHA assay; 3H-thymidine incorporation; read-out: D50 Values (Inhibition), L-PHA assay. Here is the method: This test also indicates whether the compounds enter tumor cells and measures the degree of toxicity of the compounds for cells. The test is described in J. W. Dennis, Cancer Research 46:5131, 1986.
Essentially, 2×10^4 cells are placed in individual wells of a 96-well microtest plate, wherein the wells contain serial dilutions of the compounds to be tested. […] […] The cells are then harvested and the amount of radioactivity incorporated into the host cell DNA is measured in a liquid scintillation counter. The amount of radioactivity present in cells in wells in the absence of L-PHA reflects the toxicity of the test compound and the amount of radioactivity present in the presence of L-PHA reflects the level of inhibition of oligosaccharide processing induced by the test compound.

In assay [4] the test system is bone marrow cells. Put plainly: In vivo bone marrow CFU formation and cellularity, time course (kinetic experiments). The arrangement: species or system C57BL/6 mice. The settings on record: 10 μg twice daily i.p.
From the text: as §1

Where [5] appears, read: Expt. 1, 10 μg twice daily i.p.
[6] abbreviates: Expt. 1, 20 μg twice daily i.p.
Where [7] appears, read: Expt. 1, 40 μg twice daily i.p.

In brackets after ≈: the same amount, converted by molar mass.

`O=C(O[C@@H]1CN2CCC[C@@H](O)[C@@H]2[C@@H]1O)c1ccccc1` [Compound 5, 1S-8a-β-2-alpha-benzoyloxyoctahydroindolizine-1-alpha-8-β-diol]: the “Mean of CFU Formation” value worked out at 200 CFU in the assay with bone marrow cells [1] (Expt. 1, 5 μg twice daily i.p.); 324 CFU with bone marrow cells [1] (setting [5]); 293 CFU with bone marrow cells [1] (setting [6]); 287 CFU in the assay with bone marrow cells [1] (setting [7]); 250 CFU in the assay on bone marrow cells [4] (1 day); 436 CFU in the assay on bone marrow cells [4] (2 days). Also, the “Mean of CFU Formation” value in the assay with bone marrow cells [4] (3 days) is listed as 568 CFU; with bone marrow cells [4] (4 days), 623 CFU; in the assay with bone marrow cells [4] (5 days), 621 CFU; in the assay on bone marrow cells [4] (6 days) it was 518 CFU. Also, the “Mean of Cellularity” value with bone marrow cells [1] (Expt. 1, 5 μg twice daily i.p.) is 2.91 × 10^7; with bone marrow cells [1] (setting [5]) it was 5.76 × 10^7; with bone marrow cells [1] (setting [6]), 3.07 × 10^7; in the assay on bone marrow cells [1] (setting [7]) it was 3.07 × 10^7; in the assay on bone marrow cells [1] (Expt. 2, 5 μg twice daily i.p.) it was 3.33 × 10^7; with bone marrow cells [1] (Expt. 2, 10 μg twice daily i.p.) it was 4.76 × 10^7. The “Mean of Cellularity” value in the assay on bone marrow cells [1] (Expt. 2, 20 μg twice daily i.p.) was 3.38 × 10^7; in the assay on bone marrow cells [4] (1 day), 3.00 × 10^7; in the assay with bone marrow cells [4] (2 days) it was 4.18 × 10^7; with bone marrow cells [4] (3 days) it was 5.59 × 10^7; in the assay with bone marrow cells [4] (4 days), 7.42 × 10^7; with bone marrow cells [4] (5 days) it was 6.88 × 10^7. The “Mean of Cellularity” value in the assay with bone marrow cells [4] (6 days) is on record as 5.24 × 10^7. Besides, the “Effect on bone marrow cellularity and CFU formation (summary)” value in the assay on bone marrow cells [1] (summary of experiments) is “Stimulates CFU & cellularity”. Besides, the IC50 in assay [2] is 252 µM; in assay [3], 0.5 µg/mL (≈ 1.8 µM).
As to `CCCCCCCC(=O)O[C@@H]1CN2CCC[C@@H](O)[C@@H]2[C@@H]1O` [Compound 6, 1S-8a-β-2-alpha-octanoyloxyoctahydroindolizine-1-alpha-8-β-diol], the “Mean of CFU Formation” value is on record as 200 CFU in the assay with bone marrow cells [1] (Expt. 1, 5 μg twice daily i.p.); 437 CFU in the assay on bone marrow cells [1] (setting [5]); 295 CFU with bone marrow cells [1] (setting [6]); 250 CFU with bone marrow cells [4] (1 day); 432 CFU in the assay on bone marrow cells [4] (2 days); 550 CFU in the assay on bone marrow cells [4] (3 days). Also, the “Mean of CFU Formation” value with bone marrow cells [4] (4 days) amounted to 618 CFU; with bone marrow cells [4] (5 days) it was 614 CFU; in the assay on bone marrow cells [4] (6 days) it was 488 CFU. For the same compound, the “Mean of Cellularity” value in the assay with bone marrow cells [1] (Expt. 1, 5 μg twice daily i.p.) is reported as 2.57 × 10^7; in the assay on bone marrow cells [1] (setting [5]), 3.83 × 10^7; in the assay with bone marrow cells [1] (setting [6]) it was 2.73 × 10^7; in the assay with bone marrow cells [4] (1 day), 3.56 × 10^7; in the assay on bone marrow cells [4] (2 days), 4.63 × 10^7; in the assay with bone marrow cells [4] (3 days), 5.88 × 10^7. The “Mean of Cellularity” value is reported as 7.63 × 10^7 in the assay on bone marrow cells [4] (4 days), 6.25 × 10^7 in the assay with bone marrow cells [4] (5 days) and 5.38 × 10^7 with bone marrow cells [4] (6 days). The “Effect on bone marrow cellularity and CFU formation (summary)” value with bone marrow cells [1] (summary of experiments) was “Stimulates CFU and cellularity”. In the assay with bone marrow cells [1] (summary of experiments, for 3 and 23 versus 10 μg swainsonine), the “Effect on bone marrow cellularity and CFU formation compared with swainsonine (summary)” value is on record as “not approximating swainsonine”. For the same compound, the IC50 is 117 µM in assay [2] and 0.066 µg/mL (≈ 0.22 µM) in assay [3].

Source of the values: patent US5466809A (Toronto Research Chemicals, Inc., priority 1994, dated 1995).
